From article PMC5625151 (Pharmacology Research & Perspectives, 2017)
Entries after “also recorded” stand apart in the source; their conditions may differ.

How the values were obtained:
immobilized TrkA = immobilized TrkA (Homo sapiens, UniProt P04629); experiment: SPR binding to immobilized TrkA
Mouse NGF = Mouse NGF (Mus musculus, UniProt P01139); experiment: SPR binding affinity of analogs to immobilized NGF; conditions: read-out: KD, binding affinity to immobilized NGF, two-site steady-state analysis, 0.70-200 μmol/L, 25 °C, mean of triplicate
[1] = system: NGF-dependent PC12 cell differentiation; experiment: PC12 NGF-dependent neurite outgrowth; assay type: cell-based; conditions: 500 pM NGF; for IC50: read-out: IC50 PC12 neurite outgrowth, 72 h, 100 μmol/L to 31.6 nmol/L, n = 3
PC12 cells = experiment: PC12 toxicity assay; assay type: cell-based; conditions: 100 μmol/L, 72 h, absence of NGF

Sequence of immobilized TrkA (P04629 33-796): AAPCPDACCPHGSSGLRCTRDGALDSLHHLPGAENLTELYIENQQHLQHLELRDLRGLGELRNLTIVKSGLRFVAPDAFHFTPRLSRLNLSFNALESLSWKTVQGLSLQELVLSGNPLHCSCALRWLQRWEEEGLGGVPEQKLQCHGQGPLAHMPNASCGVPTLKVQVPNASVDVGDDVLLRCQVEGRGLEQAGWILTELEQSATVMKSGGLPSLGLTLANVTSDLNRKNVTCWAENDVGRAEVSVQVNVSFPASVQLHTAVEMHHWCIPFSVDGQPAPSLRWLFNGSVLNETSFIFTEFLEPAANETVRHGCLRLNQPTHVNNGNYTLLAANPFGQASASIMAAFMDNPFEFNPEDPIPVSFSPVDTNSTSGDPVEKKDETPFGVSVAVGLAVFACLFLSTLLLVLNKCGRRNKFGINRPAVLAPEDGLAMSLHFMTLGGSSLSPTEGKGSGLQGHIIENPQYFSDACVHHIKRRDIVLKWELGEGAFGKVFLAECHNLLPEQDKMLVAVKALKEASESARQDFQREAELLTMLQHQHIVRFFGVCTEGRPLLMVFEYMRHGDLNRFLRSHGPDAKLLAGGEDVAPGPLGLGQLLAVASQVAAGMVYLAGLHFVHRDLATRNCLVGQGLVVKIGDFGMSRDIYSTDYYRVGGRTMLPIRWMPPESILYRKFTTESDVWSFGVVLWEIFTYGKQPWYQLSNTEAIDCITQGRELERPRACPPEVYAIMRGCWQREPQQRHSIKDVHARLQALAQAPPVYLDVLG
Sequence of Mouse NGF (P01139 122-241): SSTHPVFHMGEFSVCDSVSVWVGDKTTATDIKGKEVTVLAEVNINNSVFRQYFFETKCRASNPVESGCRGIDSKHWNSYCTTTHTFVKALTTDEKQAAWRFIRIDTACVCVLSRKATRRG

Kd (Mouse NGF)	Structure (SMILES)	binding to immobilized TrkA (immobilized TrkA)	IC50 [1]	PC12 cell count and morphology versus control (PC12 cells)	NGF-mediated PC12 cell process formation ([1]; increasing concentrations 0-100 μmol/L)
35.8 µM	Cn1c2ccc(NC(=O)c3ccccc3)cc2c(=O)n2nc(C(=O)O)cc12 [PD 90780, 7‐(benzolylamino)‐4,9‐dihydro‐4‐methyl‐9‐oxo‐pyrazolo[5,1‐b]quinazoline‐2‐carboxylic acid]	none showed binding; also recorded: do not bind to TrkA	33.2 µM	–	–
–	O=C(O)c1ccc(Cl)c(N2C(=O)c3ccc4c(=O)n5c6ccc([N+](=O)[O-])cc6nc5c5ccc(c3c45)C2=O)c1 [BVNP‐0197, 4‐Chloro‐3‐{6‐nitro‐11,16,18‐trioxo‐3,10,17‐triazahexacyclo[13.6.2.0^2,^10.0^4,^9.0^12,^22.0^19,^23]tricosa‐1(21),2,4,6,8,12,14,19,22‐nonaen‐17‐yl}benzoic acid]	–	–	did not significantly differ from untreated cells	significantly decreased
32.4 µM	Cc1cc2nc3c(=O)[nH]c(=O)nc-3n(C)c2cc1C=O [Ro 08‐2750]	none showed binding; also recorded: do not bind to TrkA	12 µM	–	–
